Reference: patent publication US6787354B2, “Methods for the early diagnosis of ovarian cancer” (The Board of Trustees of The University of Arkansas, priority 1997, dated 2004)
Ends that are not written are not given here.

System: peptide-loaded lymphoblastoid cell lines (LCL)
Test: 51Cr-release cytotoxicity assay with peptide-specific CD8+ CTL
Type: cell-based, human
Method: Monocyte-derived dendritic cells were generated from peripheral blood drawn from normal adult donors of the appropriate HLA type. Adherent monocytes were cultured in AIM-V (Gibco-BRL) supplemented with GM-CSF and IL-4 according to standard techniques (Santin et al, 2000, 2001). After 5-6 days, dendritic cell maturation was induced by addition of PGE2, IL-1β and TNFα for a further 48 h.
Mature dendritic cells were loaded with peptide (2×10^6 dendritic cells with 50 μg/ml peptide in 1 ml serum-free AIM-V medium for 2 h at 37° C.) and washed once prior to culture with 1×10^6/ml peripheral blood mononuclear cells (PBMC) in AIM-V or AIM-V plus 5% human AB serum. The PBMC:DC ratio was between 20:1 and 30:1. After 7 days, responder T cells were restimulated with peptide-loaded, irradiated autologous dendritic cells or peripheral blood mononuclear cells at responder:stimulator ratios between 10:1 and 20:1 or 1:1 and 1:10 respectively. At this point, cultures were supplemented with recombinant human IL-2 (10-100 U/ml), and fed with 50-75% changes of fresh medium plus IL-2 every 2-4 days. T cell lines were established and maintained by peptide restimulation every 14-21 days. Responder CD8^+T cells were purified by positive selection with anti-CD8-coupled magnetic beads (Dynal, Inc.) after the 2nd or 3rd antigen stimulation.
Peptide-specific cytotoxicity was tested in standard 5-6 h microwell ^51Cr-release assays (Nazaruk et al, 1998). Autologous EBV-transformed lymphoblastoid cell lines (LCL) were loaded with peptide (50 μg/ml, 1 h at 37° C.) and subsequently ^51Cr-labeled (50 μCi in 200-300 μl, 1 h at 37° C.). Peptide-loaded ^51Cr-labeled LCL were incubated with CD8^+T cells at effector-target ration between 5:1 and 1.25:1. Cytotoxicity was recorded as percentage ^51Cr released into culture supernatants.

GRWPWQVSL [GRWPWQVSL]
Blocking of cytotoxicity against peptide-loaded LCL by MAb specific for a non-polymorphic HLA class I determinant: could be blocked

SLGRWPWQV [SLGRWPWQV]
Blocking of cytotoxicity against peptide-loaded LCL by MAb specific for a non-polymorphic HLA class I determinant: could be blocked
Blocking of cytotoxicity by MAb specific for HLA A2.1: blocked
